Measured values from ChEMBL document CHEMBL5390237, “Discovery of Selective Histone Deacetylase 1 and 2 Inhibitors: Screening of a Focused Library Constructed by Click Chemistry, Kinetic Binding Analysis, and Biological Evaluation” (J Med Chem, 2023).

Target: Histone deacetylase 2 (Homo sapiens, UniProt Q92769)
Assay: Inhibition of full-length recombinant human C-terminal GST tagged HDAC2 expressed in Sf9 insect cells using aminoluciferin peptide substrate at 100 nM preincubated for 3 hrs followed by substrate addition and measured after 30 mins by HDAC-Glo I/II chemiluminescence assay
Conditions: time 3.5 hrs

Histone deacetylase 2, sequence (Q92769 whole entry): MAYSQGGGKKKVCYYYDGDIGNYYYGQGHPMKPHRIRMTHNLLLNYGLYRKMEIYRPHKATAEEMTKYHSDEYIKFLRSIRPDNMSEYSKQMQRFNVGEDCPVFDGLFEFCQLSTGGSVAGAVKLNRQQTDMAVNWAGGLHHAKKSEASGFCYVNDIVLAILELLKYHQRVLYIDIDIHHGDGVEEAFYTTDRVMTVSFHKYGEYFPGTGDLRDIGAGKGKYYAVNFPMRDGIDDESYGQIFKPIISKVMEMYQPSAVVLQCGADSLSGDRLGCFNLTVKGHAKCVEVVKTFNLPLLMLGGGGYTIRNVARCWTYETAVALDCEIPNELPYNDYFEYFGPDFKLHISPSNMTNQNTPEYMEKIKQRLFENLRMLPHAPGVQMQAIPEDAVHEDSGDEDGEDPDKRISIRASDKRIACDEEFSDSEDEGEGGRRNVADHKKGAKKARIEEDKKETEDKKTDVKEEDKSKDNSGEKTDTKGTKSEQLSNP

SMILES | inhibition [%]
Nc1ccc(-c2cccs2)cc1NC(=O)c1cccc(-c2cn(CCCCCCC(=O)O)nn2)c1 | 30
Nc1ccc(-c2ccsc2)cc1NC(=O)c1cn(CCC2CCCCC2)nn1 | 0
Nc1ccc(-c2cccs2)cc1NC(=O)c1ccc(-c2cn(C[S+]([O-])c3ccccc3)nn2)s1 (stereo not drawn) | 60
Nc1ccc(-c2ccc(F)cc2)cc1NC(=O)CCc1cn(CCc2cccc(F)c2)nn1 | 15
Nc1ccc(-c2ccc(F)cc2)cc1NC(=O)CCc1cn(CCCCCCCC(=O)O)nn1 | 15
Nc1ccc(-c2ccc(F)cc2)cc1NC(=O)CCc1cn(Cc2ccc(C(=O)O)cc2)nn1 | 39
Nc1ccc(-c2cccs2)cc1NC(=O)c1cn(CS(=O)(=O)c2ccccc2)nn1 | 17
Nc1ccc(-c2ccsc2)cc1NC(=O)c1cn(-c2ccccc2-c2ccccc2)nn1 | 0
Nc1ccc(-n2cc(C(=O)Nc3cc(-c4ccsc4)ccc3N)nn2)cc1 | 31
Nc1ccc(-c2ccccc2)cc1NC(=O)CCc1cn(Cc2ccc(Oc3ccccc3)cc2)nn1 | 0
Cc1cccc(CCn2cc(CCC(=O)Nc3cc(-c4ccc(F)cc4)ccc3N)nn2)c1 | 36
Nc1ccc(-n2cc(C(=O)Nc3cc(-c4cccs4)ccc3N)nn2)cc1 | 10
COc1ccc(Cn2cc(-c3ccc(C(=O)Nc4cc(-c5cccs5)ccc4N)s3)nn2)cc1 | 27
Nc1ccc(-c2ccc(F)cc2)cc1NC(=O)c1cn(CCc2ccccc2)nn1 | 17
COc1ccc(Cn2cc(CCC(=O)Nc3cc(-c4ccc(F)cc4)ccc3N)nn2)cc1 | 17
Cc1ccccc1CCn1cc(C(=O)Nc2cc(-c3ccc(F)cc3)ccc2N)nn1 | 0
Nc1ccc(-c2cccnc2)cc1NC(=O)CCc1cn(CCc2cccc3ccccc23)nn1 | 13
Nc1ccc(-c2cccs2)cc1NC(=O)c1ccc(-c2cn(-c3ccccc3-c3ccccc3)nn2)cc1 | 0
Nc1ccc(-c2cccs2)cc1NC(=O)c1ccc(-c2cn(CCN3CCc4ccccc4C3)nn2)s1 | 32
Nc1ccc(-n2cc(-c3ccc(C(=O)Nc4cc(-c5cccs5)ccc4N)s3)nn2)cc1 | 44
Nc1ccc(-c2cccs2)cc1NC(=O)c1ccc(-c2cn(-c3ccc(I)cc3)nn2)s1 | 0
Nc1ccc(-c2cccs2)cc1NC(=O)c1cn(CCc2ccccc2)nn1 | 9
Nc1ccc(-c2cccnc2)cc1NC(=O)CCc1cn(CCCCC(=O)O)nn1 | 0

SMILES | inhibition [%]
Nc1ccc(-c2cccs2)cc1NC(=O)c1ccc(-c2cn(CCc3ccccc3[N+](=O)[O-])nn2)cc1 | 33
Nc1ccc(-c2cccs2)cc1NC(=O)CCc1cn(CCCCCCCC(=O)O)nn1 | 4
Nc1ccc(-c2ccc(F)cc2)cc1NC(=O)c1cn(-c2ccc([N+](=O)[O-])cc2)nn1 | 8
Cc1cccc(CCn2cc(C(=O)Nc3cc(-c4ccc(F)cc4)ccc3N)nn2)c1 | 10
Cc1ccccc1CCn1cc(C(=O)Nc2cc(-c3ccccc3)ccc2N)nn1 | 0
Nc1ccc(-c2ccc(F)cc2)cc1NC(=O)c1cn(CCN2CCOCC2)nn1 | 10
Nc1ccc(-n2cc(CCC(=O)Nc3cc(-c4cccs4)ccc3N)nn2)cc1 | 25
Nc1ccc(-c2cccs2)cc1NC(=O)c1ccc(-c2cn(CC34CC5CC(CC(C5)C3)C4)nn2)s1 | 0
Nc1ccc(-c2cccnc2)cc1NC(=O)CCc1cn(CC2CCCCC2)nn1 | 0
Nc1ccc(-c2cccs2)cc1NC(=O)c1ccc(-c2cn(Cc3ccc4ccccc4c3)nn2)s1 | 3
Nc1ccc(-c2ccccc2)cc1NC(=O)c1cn(CCc2cccc([N+](=O)[O-])c2)nn1 | 0
Nc1ccc(-c2cccs2)cc1NC(=O)CCc1cn(CC23CC4CC(CC(C4)C2)C3)nn1 | 9
Nc1ccc(-c2cccs2)cc1NC(=O)c1ccc(-c2cn(CCCCCCC(=O)O)nn2)s1 | 28
Nc1ccc(-c2cccs2)cc1NC(=O)c1cccc(-c2cn(CCc3cccc4ccccc34)nn2)c1 | 0
Nc1ccc(-c2ccc(F)cc2)cc1NC(=O)CCc1cn(CCCCC(=O)O)nn1 | 0
Nc1ccc(-c2cccs2)cc1NC(=O)c1cccc(-c2cn(CCc3cccc(C(F)(F)F)c3)nn2)c1 | 0
Nc1ccc(-c2cccs2)cc1NC(=O)c1cccc(-c2cn(-c3ccc([N+](=O)[O-])cc3)nn2)c1 | 5
Nc1ccc(-c2ccc(F)cc2)cc1NC(=O)c1cn(CC(=O)c2ccccc2)nn1 | 6
Nc1ccc(-c2ccccc2)cc1NC(=O)CCc1cn(Cc2cccc3ccccc23)nn1 | 9
Nc1ccc(-c2cccnc2)cc1NC(=O)CCc1cn(Cc2ccc(-c3ccccc3)cc2)nn1 | 8
Nc1ccc(-c2cccs2)cc1NC(=O)c1ccc(-c2cn(CCc3ccc(C(F)(F)F)cc3)nn2)cc1 | 0
Nc1ccc(-c2ccsc2)cc1NC(=O)c1cn(CC(=O)Nc2ccc(F)cc2)nn1 | 8
COc1ccc(-n2cc(-c3cccc(C(=O)Nc4cc(-c5cccs5)ccc4N)c3)nn2)cc1 | 14

SMILES | inhibition [%]
Nc1ccc(-c2ccc(F)cc2)cc1NC(=O)c1cn(CCCCCCCC(=O)O)nn1 | 29
COc1ccc(-n2cc(CCC(=O)Nc3cc(-c4ccsc4)ccc3N)nn2)cc1 | 12
Nc1ccc(-c2cccs2)cc1NC(=O)CCc1cn(CCc2ccccn2)nn1 | 7
Nc1ccc(-c2cccs2)cc1NC(=O)CCc1cn(Cc2nc3ccccc3[nH]2)nn1 | 19
Nc1ccc(-c2ccc(F)cc2)cc1NC(=O)CCc1cn(CCC2CCCC2)nn1 | 0
Nc1ccc(-c2cccs2)cc1NC(=O)c1ccc(-c2cn(Cc3cccc(C(=O)O)c3)nn2)cc1 | 0
Nc1ccc(-c2ccccc2)cc1NC(=O)c1cn(CCc2cccc3ccccc23)nn1 | 0
Nc1ccc(-c2ccc(F)cc2)cc1NC(=O)c1cn(CCN2CCc3ccccc3C2)nn1 | 22
COc1ccccc1CCn1cc(C(=O)Nc2cc(-c3ccccc3)ccc2N)nn1 | 0
Nc1ccc(-c2cccs2)cc1NC(=O)c1cn(Cc2ccc3ccccc3c2)nn1 | 17
Nc1ccc(-c2cccs2)cc1NC(=O)c1ccc(-c2cn(CCc3ccsc3)nn2)s1 | 27
Nc1ccc(-c2cccs2)cc1NC(=O)c1cccc(-c2cn(CC(=O)Nc3ccc(F)cc3)nn2)c1 | 0
Nc1ccc(-c2cccnc2)cc1NC(=O)CCc1cn(CCc2ccc(Cl)cc2)nn1 | 7
Nc1ccc(-c2cccs2)cc1NC(=O)c1ccc(-c2cn(CCC34CC5CC(CC(C5)C3)C4)nn2)cc1 | 5
Nc1ccc(-c2ccc(F)cc2)cc1NC(=O)c1cn(CCc2ccccc2C(F)(F)F)nn1 | 0
Nc1ccc(-c2cccs2)cc1NC(=O)c1cccc(-c2cn(CCC3CCCC3)nn2)c1 | 0
Nc1ccc(-c2ccccc2)cc1NC(=O)c1cn(CCCCCc2ccccc2)nn1 | 0
Nc1ccc(-c2cccs2)cc1NC(=O)CCc1cn(CCc2ccccc2)nn1 | 26
Nc1ccc(-c2ccc(F)cc2)cc1NC(=O)c1cn(CCCCCC(=O)O)nn1 | 20
Nc1ccc(-c2ccsc2)cc1NC(=O)c1cn(-c2ccc(I)cc2)nn1 | 0
COc1ccc(CCn2cc(C(=O)Nc3cc(-c4ccc(F)cc4)ccc3N)nn2)cc1 | 16
Nc1ccc(-c2ccsc2)cc1NC(=O)c1cn(CS(=O)(=O)c2ccccc2)nn1 | 14
